Assay results reported in ChEMBL document CHEMBL1821660, “Synthesis and biological activity of a novel class nicotinic acetylcholine receptors (nAChRs) ligands structurally related to anatoxin-a” (Bioorg Med Chem Lett, 2011).

Assays:
[1] = target: Neuronal acetylcholine receptor; alpha3/beta4 (Homo sapiens, UniProt P30926+P32297); assay: Displacement of [3H]-epibatidine from alpha3beta4 nAChR expressed in human IMR32 cells after 2 hrs by scintillation counting; format: cell-based, IMR-32
[2] = Displacement of [3H]-cytisine from nAChR in rat brain membranes; format: cell membranes
[3] = target: Neuronal acetylcholine receptor subunit alpha-7 (Homo sapiens, UniProt P36544); assay: Displacement of [125I]-alpha-bungarotoxin from alpha7 nAchR expressed in rat GH4C1 cells; format: cell-based, GH4-C1
Neuronal acetylcholine receptor subunit alpha-7, sequence (P36544 whole entry): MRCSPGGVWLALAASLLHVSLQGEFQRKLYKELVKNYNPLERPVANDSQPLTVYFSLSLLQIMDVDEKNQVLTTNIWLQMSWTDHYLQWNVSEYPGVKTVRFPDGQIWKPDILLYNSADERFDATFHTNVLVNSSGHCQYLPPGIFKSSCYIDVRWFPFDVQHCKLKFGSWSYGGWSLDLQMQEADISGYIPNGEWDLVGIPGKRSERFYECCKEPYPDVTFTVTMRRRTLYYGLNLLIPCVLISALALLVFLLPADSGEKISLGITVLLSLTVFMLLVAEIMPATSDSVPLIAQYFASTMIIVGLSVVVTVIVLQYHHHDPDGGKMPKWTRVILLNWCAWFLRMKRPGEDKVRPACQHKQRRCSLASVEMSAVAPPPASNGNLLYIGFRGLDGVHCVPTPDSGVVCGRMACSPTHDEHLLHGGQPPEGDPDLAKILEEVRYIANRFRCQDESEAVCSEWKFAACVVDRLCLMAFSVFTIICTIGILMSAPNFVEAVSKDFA

[4] = target: Acetylcholine receptor subunit alpha (Homo sapiens, UniProt P02708); assay: Binding affinity to alpha1 nAchR expressed in human TE671 cells; format: cell-based, TE-671
Acetylcholine receptor subunit alpha, sequence (P02708 whole entry): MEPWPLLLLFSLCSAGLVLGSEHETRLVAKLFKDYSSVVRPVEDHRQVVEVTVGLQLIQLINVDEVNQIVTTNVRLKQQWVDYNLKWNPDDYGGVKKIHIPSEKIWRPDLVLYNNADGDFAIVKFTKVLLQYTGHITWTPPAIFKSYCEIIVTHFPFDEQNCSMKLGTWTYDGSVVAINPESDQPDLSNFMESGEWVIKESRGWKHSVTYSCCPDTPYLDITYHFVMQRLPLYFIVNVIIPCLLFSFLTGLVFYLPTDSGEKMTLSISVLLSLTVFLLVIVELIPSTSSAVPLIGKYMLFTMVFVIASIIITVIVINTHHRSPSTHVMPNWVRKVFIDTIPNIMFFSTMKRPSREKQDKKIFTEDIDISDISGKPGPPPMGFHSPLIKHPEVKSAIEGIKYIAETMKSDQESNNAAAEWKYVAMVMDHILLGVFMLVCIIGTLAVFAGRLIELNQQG

Neuronal acetylcholine receptor; alpha3/beta4, sequence (P30926 whole entry): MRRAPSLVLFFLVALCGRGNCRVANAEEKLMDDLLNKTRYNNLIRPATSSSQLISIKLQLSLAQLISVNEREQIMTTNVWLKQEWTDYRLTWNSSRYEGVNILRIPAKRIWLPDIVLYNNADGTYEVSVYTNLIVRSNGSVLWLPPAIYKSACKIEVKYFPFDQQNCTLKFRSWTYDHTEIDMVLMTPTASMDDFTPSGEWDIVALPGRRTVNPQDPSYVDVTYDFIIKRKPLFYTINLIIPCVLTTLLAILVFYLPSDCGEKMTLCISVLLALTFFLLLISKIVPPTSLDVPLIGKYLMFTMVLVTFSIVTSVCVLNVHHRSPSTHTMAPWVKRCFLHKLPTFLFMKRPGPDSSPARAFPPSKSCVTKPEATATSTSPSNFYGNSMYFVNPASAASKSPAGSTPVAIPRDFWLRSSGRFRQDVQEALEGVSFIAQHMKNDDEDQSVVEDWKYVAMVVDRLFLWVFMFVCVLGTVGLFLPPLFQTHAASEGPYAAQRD
Neuronal acetylcholine receptor; alpha3/beta4, sequence (P32297 whole entry): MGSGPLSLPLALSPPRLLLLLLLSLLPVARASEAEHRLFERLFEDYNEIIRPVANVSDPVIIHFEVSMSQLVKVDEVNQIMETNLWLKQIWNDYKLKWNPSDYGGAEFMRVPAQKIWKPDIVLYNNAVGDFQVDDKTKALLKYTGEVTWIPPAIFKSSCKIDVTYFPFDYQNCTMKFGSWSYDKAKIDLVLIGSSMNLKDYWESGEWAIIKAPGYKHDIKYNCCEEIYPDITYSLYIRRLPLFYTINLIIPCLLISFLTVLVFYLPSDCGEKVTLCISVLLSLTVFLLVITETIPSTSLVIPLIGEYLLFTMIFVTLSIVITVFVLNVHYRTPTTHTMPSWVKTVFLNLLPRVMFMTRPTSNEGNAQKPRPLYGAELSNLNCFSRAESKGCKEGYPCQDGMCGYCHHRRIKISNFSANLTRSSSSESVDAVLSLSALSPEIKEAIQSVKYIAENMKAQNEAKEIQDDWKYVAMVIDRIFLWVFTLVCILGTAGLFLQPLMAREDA

| Compound | IC50 [1] | IC50 [2] | IC50 [3] | IC50 [4] |
| --- | --- | --- | --- | --- |
| Cc1cc(C2=CCC[C@@H]3CC[C@H]2N3)on1 (racemic) | > 10 µM | 0.0091 µM | > 10 µM |  |
| CCc1cc(C2=CCC[C@@H]3CC[C@H]2N3)on1 (racemic) | 1.8 µM | 0.0122 µM | 4.6 µM | 4.2 µM |
| CC(C)c1cc(C2=CCC[C@@H]3CC[C@H]2N3)on1 (racemic) | 2.9 µM | 2.1 µM | 15.1 µM | 5.5 µM |
| C1=C(c2cc(-c3ccccc3)no2)[C@H]2CC[C@@H](CC1)N2 (racemic) | 1.05 µM | > 10 µM | > 10 µM | 7.8 µM |
| CCOC(=O)c1cc(C2=CCC[C@@H]3CC[C@H]2N3)on1 (racemic) | > 10 µM | > 10 µM | > 10 µM | > 10 µM |
| Cc1cc([C@@]2(O)CCC[C@@H]3CC[C@H]2N3)on1 (racemic) | > 10 µM | > 10 µM | > 10 µM | > 10 µM |
| Cc1cc([C@]2(O)CCC[C@@H]3CC[C@H]2N3)on1 (racemic) | > 10 µM | > 10 µM | > 10 µM | > 10 µM |
| Cc1noc2c1[C@H]1CC[C@@H](CC2)N1 (racemic) | > 10 µM | > 10 µM | > 10 µM | > 10 µM |
| CCOC(=O)c1noc2c1[C@H]1CC[C@@H](CC2)N1 (racemic) | > 10 µM | > 10 µM | > 10 µM | > 10 µM |
| CN1CCC[C@H]1c1cccnc1 [NICOTINE] |  | 0.0047 µM |  |  |
